US20210244813A1, “ADJUVANT AND VACCINE COMPOSITIONS” (priority 2012, published 2021)

Test system: IL-4
Test: Relative IL-4 mRNA expression (real time RT-PCR) in cultured splenic lymphocytes of vaccinated mice
Type: cell-based
Details: vaccine treatment group; culture with LAP, LAP/QAC or OVA

## OVA
  IL-4 expression normalized to ARBP at 48 hours in culture: Increased IL-4 expression was observed for some animals
